Reference: publication PMC5620277, “The histone methyltransferase EZH2 as a druggable target in SHH medulloblastoma cancer stem cells” (Oncotarget, 2017)

How the values were obtained:
PRMT1 = PRMT1 (Homo sapiens, UniProt Q99873); experiment: Methyltransferase panel: PRMT1; format: biochemical; conditions: substrate histone H4
Protocol: (§1) MC3629 was tested in the cell free enzymatic assay (EZH2/PRC2) in 10-dose IC50 mode with 2-fold serial dilution starting from 400 μM solution, using various histone substrates (histone H3/H4 octamer, histone H3/H4 tetramer, histone H3, and core histone) and SAM as the co-substrate. […] (Figure 2B, and Supplementary Figure 2).
(§2) The appropriate methyltransferase (MT) substrate (0.05 mg/ml core histone for EZH1 complex, 0.05 mg/ml oligonucleosomes for DOT1L, 5 μM histone H3 (1-21) peptide for G9a, 0.05 mg/ml nucleosomes for MLL1 complex, 0.05 mg/ml core histone for SET7/9, 5 μM histone H4 for PRMT1, and 0.001 mg/ml poly(dI-dC) for DNMT1) was added in freshly prepared Reaction Buffer (50 mM Tris-HCl (pH 8.5), 5 mM MgCl2, 50 mM NaCl, 0.01% Brij35, 1 mM DTT, 1% DMSO). The MT enzyme was delivered into the substrate solution and the mixture was mixed gently. Afterwards, the tested compound dissolved in DMSO was delivered into the enzyme/substrate reaction mixture by using Acoustic Technology (Echo 550, LabCyte Inc. Sunnyvale, CA) in nanoliter range, and 1 μM ^3H-SAM was also added into the reaction mixture to initiate the reaction. The reaction mixture was incubated for 1 h at 30°C and then it was delivered to filter-paper for detection. The data were analyzed using Excel and GraphPad Prism software for IC50 curve fits (for EZH1 complex).

DNMT1 = DNMT1 (Homo sapiens, UniProt P26358); experiment: Methyltransferase panel: DNMT1; format: biochemical; conditions: substrate Poly dI-dC
Protocol: as §1, §2

DAOY-SLCs [1] = experiment: Cell viability, MTS assay, DAOY-SLCs; format: cell-based; conditions: 5 μM, after 48 h
Protocol: To evaluate cell viability cells were plated at a density of 5×10^3 cells/well in 96-well plates and were incubated with MTS solution (CellTiter 96® AQueous One Solution Promega).

DAOY-SLCs [2] = experiment: Cell death (Trypan blue test) in DAOY-SLCs; format: cell-based; conditions: 5 μM, 72 h
Protocol: Trypan blue exclusion test was used to count viable or death cells present in a cell suspension. Each sample was measured in triplicate and repeated at least three times.

Chain of DNMT1 (P26358 whole entry, species assumed): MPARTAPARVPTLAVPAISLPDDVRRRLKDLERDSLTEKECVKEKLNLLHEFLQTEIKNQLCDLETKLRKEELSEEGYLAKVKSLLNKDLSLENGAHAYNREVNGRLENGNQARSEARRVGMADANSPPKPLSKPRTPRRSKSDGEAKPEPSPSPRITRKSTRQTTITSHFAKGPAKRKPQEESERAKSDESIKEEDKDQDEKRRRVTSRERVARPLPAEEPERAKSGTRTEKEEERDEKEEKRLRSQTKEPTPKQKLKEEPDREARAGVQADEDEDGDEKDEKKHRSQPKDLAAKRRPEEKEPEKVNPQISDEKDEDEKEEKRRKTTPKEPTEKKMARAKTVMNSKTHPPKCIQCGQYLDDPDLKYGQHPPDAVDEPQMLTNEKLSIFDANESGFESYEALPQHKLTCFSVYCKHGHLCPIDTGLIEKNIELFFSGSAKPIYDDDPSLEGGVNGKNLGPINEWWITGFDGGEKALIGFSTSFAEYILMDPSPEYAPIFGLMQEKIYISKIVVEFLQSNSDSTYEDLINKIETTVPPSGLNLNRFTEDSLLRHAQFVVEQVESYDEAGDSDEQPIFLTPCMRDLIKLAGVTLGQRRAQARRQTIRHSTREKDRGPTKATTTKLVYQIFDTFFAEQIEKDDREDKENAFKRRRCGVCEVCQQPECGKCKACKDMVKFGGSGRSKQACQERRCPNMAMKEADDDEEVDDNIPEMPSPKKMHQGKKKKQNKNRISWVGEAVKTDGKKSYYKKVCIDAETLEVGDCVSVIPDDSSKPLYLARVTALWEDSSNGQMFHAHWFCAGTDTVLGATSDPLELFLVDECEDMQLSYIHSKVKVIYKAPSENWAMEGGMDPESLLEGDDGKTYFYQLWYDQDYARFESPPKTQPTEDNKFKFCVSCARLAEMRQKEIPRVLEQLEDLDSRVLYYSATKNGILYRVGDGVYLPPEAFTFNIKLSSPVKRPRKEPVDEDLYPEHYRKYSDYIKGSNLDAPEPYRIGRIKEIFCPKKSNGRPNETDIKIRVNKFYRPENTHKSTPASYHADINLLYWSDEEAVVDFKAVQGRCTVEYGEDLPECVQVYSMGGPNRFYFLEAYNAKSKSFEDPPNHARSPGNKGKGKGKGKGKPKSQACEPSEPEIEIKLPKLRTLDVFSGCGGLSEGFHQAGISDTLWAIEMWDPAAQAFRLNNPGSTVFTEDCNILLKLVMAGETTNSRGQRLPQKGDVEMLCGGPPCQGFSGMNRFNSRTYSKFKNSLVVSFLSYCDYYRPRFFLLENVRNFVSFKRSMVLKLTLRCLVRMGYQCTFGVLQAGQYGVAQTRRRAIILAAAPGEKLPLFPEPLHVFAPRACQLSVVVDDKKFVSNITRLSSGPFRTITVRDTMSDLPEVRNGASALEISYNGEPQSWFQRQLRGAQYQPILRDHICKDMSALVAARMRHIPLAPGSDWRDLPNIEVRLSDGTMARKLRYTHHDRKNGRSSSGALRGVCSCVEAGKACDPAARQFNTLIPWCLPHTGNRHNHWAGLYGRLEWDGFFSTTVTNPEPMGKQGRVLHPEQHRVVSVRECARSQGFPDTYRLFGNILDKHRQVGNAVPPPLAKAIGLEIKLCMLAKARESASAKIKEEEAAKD
Chain of PRMT1 (Q99873 whole entry, species assumed): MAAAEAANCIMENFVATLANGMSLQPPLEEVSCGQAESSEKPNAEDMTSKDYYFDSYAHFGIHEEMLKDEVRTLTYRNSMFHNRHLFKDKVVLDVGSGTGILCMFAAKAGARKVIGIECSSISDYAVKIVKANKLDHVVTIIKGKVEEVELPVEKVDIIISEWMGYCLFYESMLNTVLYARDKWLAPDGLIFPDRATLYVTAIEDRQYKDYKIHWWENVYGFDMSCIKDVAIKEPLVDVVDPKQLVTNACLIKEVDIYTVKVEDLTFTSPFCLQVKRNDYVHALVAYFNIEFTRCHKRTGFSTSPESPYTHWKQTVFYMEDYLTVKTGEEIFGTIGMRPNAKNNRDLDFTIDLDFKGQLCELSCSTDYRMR

Question: For `Cc1cc(C)c(CNC(=O)c2cnn(-c3ccccc3)c2C)c(=O)[nH]1` [MC3629, N-((4,6-dimethyl-2-oxo-1,2-dihydropyridin-3-yl)methyl)-5-methyl-1-phenyl-1H-pyrazole-4-carboxamide], which inhibition at 200 µM (PRMT1) is on record?
Answer: 5.7%

Question: And the inhibition at 200 µM (DNMT1)?
Answer: 0%

Question: What about the cell viability (DAOY-SLCs [1]) of the same molecule?
Answer: impaired cell viability

Question: What about the cell death (DAOY-SLCs [2]) of the same molecule?
Answer: induced cell death
